Experimental data published in article PMC10482691, “LTP induction by structural rather than enzymatic functions of CaMKII” (Nature, 2023).
Several values for one entry are separate records, joined by “and”; a condition that tells them apart may be missing. Equal entries are not always repeated. Where two headings read alike, the source gives them in different places.

How the values were obtained:
[1] = biological target: purified CaMKIIα binding to GST–GluN2B-c WT (Homo sapiens, UniProt Q9UQM7); experiment: CaMKII binding to immobilized GST–GluN2B-c in vitro; details: Ca2+/CaM, 1 mM ATP; GST–GluN2B-c WT
Method: CaMKII–GluN2B binding assays were done as described[9],[13],[25]. Briefly, GST–GluN2B-c tail (GST–2BC) was immobilized on anti-GST antibody-coated microtiter plates (Thermo Scientific), blocked for 30 min with 5% BSA and then overlaid with […] CaMKII (subunit concentration) in PIPES-buffered saline (pH 7.2) containing 2 mM Ca^2+, 1 μM CaM, 1 mM Mg^2+, 0.1% BSA and 0.1% Tween-20 for 20 min at room temperature. […] After extensive washes in buffer containing 1 mM EGTA, GST–2BC and bound CaMKII were eluted for 10 min in SDS loading buffer at 95 °C. Bound CaMKII was measured via immunoblot.

[2] = tested on: purified CaMKIIα; experiment: Km of CaMKII for ATP (GST-GluA1 S831 phosphorylation with increasing ATP); format: biochemical; details: 30 °C, 4 independent experiments, read-out: CaMKII Michaelis-Menten constant (Km) for ATP
Method: CaMKII-mediated phosphorylation of GluA1 S831 or GluN2B S1303 was measured by in vitro kinase reaction with a purified GST–GluA1 C-terminal tail or GST-GluN2B C-terminal tail. Reactions contained 40 nM CaMKII, 1 μM GST–GluA1, 50 mM PIPES, pH 7.1, 2 mM CaCl2, 10 mM MgCl2, 1 μM calmodulin, 1–4 mM ATP and 1 μM okadaic acid. Negative controls were prepared without ATP. Reactions were done at 30 °C for 20 s; reactions were stopped by adding SDS loading buffer and incubation in a boiling water bath for 5 min. GST, phospho-S831, CaMKII, phospho-T286 or phospho-S1303 were detected in the samples by immunoblot analysis. […]
Data are presented as mean values +/− SEM. a, Comparison of AS105 vs AS283 structure. b, Representative Immunoblots and quantification of in vitro kinase reactions at 30 °C with increasing ATP concentration measuring purified CaMKIIα phosphorylation of GST-GluA1 S831. […] Correlation indices before and after ionomycin-induced colocalization of GFP-CaMKII and mCherry-2BC under vehicle or 10 μM AS105 conditions (n = 23,18 cells; ***p < 0.001, RM two-way ANOVA with Šídák’s multiple comparisons test). Scale bar indicates 10 μm. […] CaMKII synaptic enrichment was measured before and after cLTP (n = 11,10 cells; *p < 0.05; RM two-way ANOVA with Šídák’s multiple comparisons test). […]

[3] = tested on: purified CaMKIIα; experiment: as above; format: biochemical
[4] = tested on: purified CaMKIIα; design: method as in PMID 29294328, PMID 8385100, PMID 19857459, PMID 14558884; details: read-out: previously published Km values for ATP; cited from earlier work
[5] = tested on: CA3–CA1 Schaffer collateral pathway LTP; design: method as in PMID 2549638; details: previous studies; cited from earlier work

Row | bound CaMKIIα (immunoblot, relative) [1] | Km [2] [µM] | CaMKIIα phosphorylation of GST-GluA1 S831 (relative) ([3]; 1.5625 uM ATP) | CaMKIIα phosphorylation of GST-GluA1 S831 (relative) ([3]; 25 uM ATP) | CaMKIIα phosphorylation of GST-GluA1 S831 (relative) ([3]; 100 uM ATP) | CaMKIIα phosphorylation of GST-GluA1 S831 (relative) ([3]; 200 uM ATP) | CaMKIIα phosphorylation of GST-GluA1 S831 (relative) ([3]; 400 uM ATP) | Structure (SMILES) | Km [4] [µM] | effect on LTP [5]
1 | 4.397 and 5.355 and 6.655 and 4.688 | 33.3 | 0 | 0.594 and 0.4443 and 0.666 and 0.3478 | 0.9012 and 0.7992 and 1.006 and 0.6032 | 1.078 and 0.8135 and 1.004 and 0.7632 | 1.127 and 0.9367 (2×) | Nc1ncnc2c1ncn2[C@@H]1O[C@H](COP(=O)(O)OP(=O)(O)OP(=O)(O)O)[C@@H](O)[C@H]1O [ATP] | 8 to 127 | 
2 |  |  |  |  |  |  |  | CC1CNCCN1S(=O)(=O)c1cccc2cnccc12 (stereo not drawn) [H7] |  | LTP inhibition
